Laboratory results reported in US20260219274A1, “POLYOL SWEETNERS AND CARDIOVASCULAR AND THROMBOTIC EVENT RISK” (THE CLEVELAND CLINIC FOUNDATION, priority 2023, published 2026).

Test system: patients undergoing elective diagnostic coronary angiography (European cohort)
Assay: European validation cohort: LC/MS/MS serum erythritol vs 3-year MACE
Type: in vivo, human
Description: In a third clinical study (the European Cohort, n=833), serum erythritol levels were quantified by stable isotope dilution LC/MS/MS in samples from sequential patients undergoing elective diagnostic coronary angiography due to (suspected) chronic coronary syndromes enrolled in the observational LipidCardio study between 2016-2018 at the Charité University Hospital, Campus Benjamin Franklin (registered under German Clinical Trial Register (drks.de); identifier: DRKS00020915) with a follow-up for 3 years^49. As a quaternary referral center, Charité University Hospital is centrally located in Europe, and subjects enrolled in the LipidCardio study have large geographic catchment, with residences throughout Europe. eGFR was calculated via CKD-MDRD equation^48. For the European validation cohort, there was a total of 833 samples available with MACE outcome data. All samples were used for the erythritol LC/MS/MS measurement.
Stable-isotope-dilution LC/MS/MS was used for quantification of erythritol, threitol, and 1,5-AHG in human and mouse plasma. Ice cold methanol (800 μL) and internal standards (D6-erythitol and ^13C6-1,5-AHG) were added to the plasma samples (20 μL), followed by vortexing and centrifuging (21,000×g; 4° C. for 15 min). The clear supernatant (800 μL) was transferred into a clean, labeled glass tubes (Borosilicate glass 12×75 mm) and dried in a speed vacuum concentrator (Speed vac plus, SC210, Thermo Sevant). The dry residue was reconstituted in acetic anhydride (100 μL) and 4-Dimethylaminopyridine (DMAP) in pyridine (100 μL; 1 mg/mL), sealed with safety caps, vortexed and heated (45 min at 80° C.) followed with drying under nitrogen. Dried residues were dissolved in HCl in water (0.1 M; 0.5 mL) and extracted with ethyl acetate (2 mL). Ethyl acetate layer was transferred into a clean glass tubes (Borosilicate glass 12×75 mm) and dried under nitrogen. The dry residue was reconstituted in ammonium formate in a mixture of methanol:water (100 μL; 50:50 v/v with 10 mM ammonium formate), tubes were vortexed and liquid was transferred to glass vials with micro-insets and caped. LC/MS/MS analysis was performed on a chromatographic system consisting of two Shimadzu LC-30 AD pumps (Nexera X2), a CTO 20AC oven operating at 30° C., and a SIL-30 AC-MP autosampler in tandem with a triple quadruple mass spectrometer (8050 series, Shimadzu Scientific Instruments, Inc., Columbia, MD, USA). For chromatographic separation, a Kinetex C18 column (50 mm×2.1 mm; […]) (Cat #00B-4462-AN, Phenomenex, Torrance, CA) was used. […] Electrospray ionization in the positive mode was used with multiple reaction monitoring (MRM) for detection of endogenous and stable isotope labeled internal standards. The following transitions were used: m/z 308.0 [M+4xC2OH2+NH4]^+→231.0 for threitol and erythritol, m/z 314.0 [M+4xC2OH2+NH4]^+→237.0 for D6-erythritol; m/z 360.1 [M+4xC2OH2+NH4]^+→273.3 for 1,5AHG; […] [M+4xC2OH2+NH4]^+→279.3 for ^13C6-1,5-AHG; The following ion source parameters were applied: nebulizing gas flow, 3 l/min; heating gas flow, 10 L/min; interface temperature, 300° C.; desolvation line temperature, 250° C.; heat block temperature, 400° C.; and drying gas flow, 10 L/min. Limit of detection (LOD) and limit of quantification (LOQ) were as follow: threitol:0.048 and 0.160 μM; erythritol: 0.026 and 0.089 μM; 1,5-AHG: […]; respectively. Three quality control samples were run with each batch of samples and inter-batch variations expressed as coefficient of variation (CV) were less than 7% for all analytes monitored. Data were collected and analyzed by LabSolution 5.91 software (Shimadzu).
Continuous variables were summarized as median (25th and 75th percentiles), and categorical variables are presented as %. For group comparisons of patient characteristics, Kruskal-Wallis test was performed for numerical data and Chi-Square test for categorical data. […]

## OC[C@@H](O)[C@@H](O)CO [erythritol]
3-year MACE per μM of erythritol, adjusted Cox model
  HR with 95% CI: 1.16 (1.05-1.30)
Erythritol Q2 vs Q1, female
  Adjusted HR, 3-year MACE: 1.82
  Unadjusted HR, 3-year MACE: 1.64
Erythritol Q2 vs Q1, male
  Adjusted HR, 3-year MACE: 0.98
  Unadjusted HR, 3-year MACE: 1.22
Erythritol Q3 vs Q1, female
  Adjusted HR, 3-year MACE: 1.66
  Unadjusted HR, 3-year MACE: 1.67
Erythritol Q3 vs Q1, male
  Adjusted HR, 3-year MACE: 0.93
  Unadjusted HR, 3-year MACE: 2.09
Erythritol Q4 vs Q1, female
  Adjusted HR, 3-year MACE: 2.27 (0.75-6.82)
  Unadjusted HR, 3-year MACE: 3.77 (1.61-8.80)
Erythritol Q4 vs Q1, male
  Adjusted HR, 3-year MACE: 2.37
  Unadjusted HR, 3-year MACE: 4.92
Per 1 μM increase in erythritol levels
  increase in the adjusted HR for MACE: 16%
Subgroup Age <70
  Q4 vs. Q1 HR (95% CI), 3-year MACE: 3.08 (1.22-7.78)
Subgroup Age ≥70
  Q4 vs. Q1 HR (95% CI), 3-year MACE: 3.49 (2.12-5.73)
Subgroup CAD
  Q4 vs. Q1 HR (95% CI), 3-year MACE: 4.22 (2.58-6.89)
Subgroup Diabetes
  Q4 vs. Q1 HR (95% CI), 3-year MACE: 5.16 (2.4-11.1)
Subgroup Female
  Q4 vs. Q1 HR (95% CI), 3-year MACE: 3.77 (1.61-8.80)
Subgroup GFR <60 ml/min/1.73 m^3
  Q4 vs. Q1 HR (95% CI), 3-year MACE: 5.25 (2.82-9.76)
Subgroup GFR ≥60 ml/min/1.73 m^3
  Q4 vs. Q1 HR (95% CI), 3-year MACE: 2.38 (1.32-4.31)
Subgroup HDL-c <40 mg/dL
  Q4 vs. Q1 HR (95% CI), 3-year MACE: 4.15 (1.91-8.99)
Subgroup HDL-c ≥40 mg/dL
  Q4 vs. Q1 HR (95% CI), 3-year MACE: 4.28 (2.4-7.62)
Subgroup HbA1C <5.7%
  Q4 vs. Q1 HR (95% CI), 3-year MACE: 2.13 (1.06-4.25)
Subgroup HbA1C ≥5.7%
  Q4 vs. Q1 HR (95% CI), 3-year MACE: 5.39 (2.96-9.81)
Subgroup Hypertension
  Q4 vs. Q1 HR (95% CI), 3-year MACE: 6.08 (1.31-28.1)
Subgroup LDL-c <100 mg/dL
  Q4 vs. Q1 HR (95% CI), 3-year MACE: 3.92 (2.25-6.83)
Subgroup LDL-c ≥100 mg/dL
  Q4 vs. Q1 HR (95% CI), 3-year MACE: 4.27 (1.94-9.37)
Subgroup Male
  Q4 vs. Q1 HR (95% CI), 3-year MACE: 4.92 (2.89-8.35)
Subgroup No CAD
  Q4 vs. Q1 HR (95% CI), 3-year MACE: 5.97 (1.75-20.4)
Subgroup No Diabetes
  Q4 vs. Q1 HR (95% CI), 3-year MACE: 2.96 (1.72-5.10)
Subgroup No Hypertension
  Q4 vs. Q1 HR (95% CI), 3-year MACE: 4.97 (3.05-8.09)
Subgroup No Prior MI
  Q4 vs. Q1 HR (95% CI), 3-year MACE: 3.48 (1.77-6.87)
Subgroup Prior MI
  Q4 vs. Q1 HR (95% CI), 3-year MACE: 4.69 (2.54-8.66)
Subgroup Triglycerides <150
  Q4 vs. Q1 HR (95% CI), 3-year MACE: 3.71 (1.93-7.14)
Subgroup Triglycerides ≥150
  Q4 vs. Q1 HR (95% CI), 3-year MACE: 3.85 (1.50-9.87)
